The values that follow come from patent US7314620B2, “Methods for diagnosis and treatment of PH domain signal transduction disorders” (New York University, priority 1995, dated 2008).

The target in assay [1] is T1, PLCδ-PH (Rattus norvegicus, UniProt P10688).
T1 construct: initiator methionine (N); made in house; host or cells: Escherichia coli (pET11a, T7 system)
T1 sequence (P10688 20-136): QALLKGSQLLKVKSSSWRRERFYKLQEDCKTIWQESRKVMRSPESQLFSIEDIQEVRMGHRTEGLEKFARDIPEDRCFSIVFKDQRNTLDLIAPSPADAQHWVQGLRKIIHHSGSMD
The assay is described as follows: Spin-column competition assay for 3H-I(145)P3 binding to PLCδ-PH. The conditions noted are these: for competition for I(145)P3 binding by lipid vesicles: lipid at 5% in DMPC vesicles or pure DMPC, assuming 50% of lipid on the surface. On the procedure:
A spin-column based competition assay was employed to determine relative affinities of other inositol polyphosphates for PLCδ-PH. […] The sample (40 μl) was then applied to a Biogel P6 gel filtration spin-column. […] Each curve represents the mean of two or more experiments.
The sample was then applied to a pre-spun 1 ml spin-column containing Biogel P6 desalting medium. The spin-column was then centrifuged for 4 minutes at 900 g. Essentially all of the protein was determined to pass through the column under these conditions, and no significant counts were seen to pass through the column in the absence of protein. After spinning, all of the material that passed through the column was added to scintillation fluid for counting. Counts were normalized to those obtained in the absence of competitor, and plotted as fraction of maximal binding. […]
Values for which a precise number is given represent the mean of at least two experiments.

Assay [2] has as its target T2, PlecN-PH (N-terminal PH domain of pleckstrin) (Homo sapiens, UniProt P08567).
T2 construct: residues 1-110 of pleckstrin (PlecN-PH); initiator methionine (N); made in house; host or cells: Escherichia coli (pET11a, T7 system)
T2 sequence (P08567 1-110): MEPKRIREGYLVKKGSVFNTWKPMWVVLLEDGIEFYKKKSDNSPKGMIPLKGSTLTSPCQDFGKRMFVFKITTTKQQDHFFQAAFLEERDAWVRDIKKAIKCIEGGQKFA
In words: Gel filtration of 3H-labeled IP3 with PH domain. The class given is binding. Conditions: PH domain 10 μM, IP3 20 μM. The procedure:
(§1) For gel-filtration studies, PH domain at 10 μM was mixed with 20 μM IP3, containing 100 nCi of the appropriate ^3H-labeled isomer. A 200 μl sample was applied to a BioRad BiogelP6 desalting column, and 40 fractions of 300 μl were collected. A Bio-Rad protein assay was performed on […] of each fraction to determine the elution position of the protein, and scintillation counting of the remainder was used to detect the elution positions of IP3. Experiments were performed in either 50 mM MOPS, 100 mM NaCl, pH 6.8, or 100 mM NH4OAc, pH 6.8.

Assay [3] addresses T3, Dyn-PH (PH domain of dynamin) (Homo sapiens, UniProt Q05193).
T3 construct: The PH domains from PLC-δ1, and dynamin, as well as the N-terminal PH domain of pleckstrin; made in house; host or cells: Escherichia coli (T7 system)
T3 sequence (Q05193 519-625 limits assumed): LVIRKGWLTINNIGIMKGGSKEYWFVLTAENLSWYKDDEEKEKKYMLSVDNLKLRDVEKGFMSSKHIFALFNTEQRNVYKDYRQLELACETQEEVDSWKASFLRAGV
In words: Gel filtration of 3H-labeled IP3 with PH domain. The class given is binding. The conditions noted are these: PH domain 10 μM, IP3 20 μM. The procedure:
as §1
Background: SEC sorts molecules by how far they enter the pores of the column.

The target of assay [4] is T1, PLCδ-PH. In words: Gel filtration of 3H-labeled IP3 with PH domain. The class given is binding. Conditions: PH domain 10 μM, IP3 20 μM. The procedure:
as §1

In assay [5] the test system is any PH domain (PLCδ-PH, Dyn-PH, PlecN-PH). In words: Centrifugation-based assay of PH domain binding to lipid vesicles. The conditions noted are these: lipid at 5% in DMPC vesicles. On the procedure: Attempts to detect PH domain association with lipid vesicles were performed exactly as described by Harlan, J. E. et al., Nature 371, 168-170, 1994. In addition to using the BCA protein assay reagent, for which lipid blanks were rather high compared with the values expected for the protein concentrations employed, we also measured OD278 of the supernatants after addition of SDS in order to detect removal of protein upon pelleting vesicles. […] Initially, we performed a centrifugation-based assay, using the conditions described by Harlan, J. E. et al., Nature 371, 168-170, 1994. […] Similarly, we were unable to detect association of any of the PH domains with the same vesicles by using size-exclusion chromatography to separate protein and lipid. Any complexes between the PH domains and these vesicles therefore form with low affinity and/or have fast dissociation kinetics, such that they dissociate in the separation methods employed.

The target in assay [6] is T4, PLCδ-PH (PH domain of rat PLC-δ1) (Rattus norvegicus, UniProt P10688).
T4 construct: initiator methionine (N); made in house; host or cells: Escherichia coli (pET11a, T7 system)
T4 sequence (P10688 20-136): T1 sequence (P10688 20-136)
The assay is described as follows: Isothermal titration calorimetry of inositol polyphosphate / PIP2 vesicle binding to PLCδ-PH. On the procedure:
The resulting titration curve was fit using Omega software (Wiseman et al., 1989).
All experiments utilized the OMEGA instrument from MicroCal (Wiseman, T. et al., Anal. Biochem. 179, 131-137, 1989), in the laboratory of Prof. Julian Sturtevant at Yale. Titrations were performed at 25° C. in 50 mM MOPS, 100 mM NaCl, pH 6.8 or 100 mM NH4OAc at pH 6.8. […] For each titration, PH domain solution was dialyzed exhaustively against the buffer used for dilution of highly concentrated stocks of ligand. Heats for dilution of the ligand solutions were determined in separate titrations of ligand into buffer solution present in the cell.
Higher concentrations were employed for weaker binding events. […] Stoichiometry, binding constant (Kβ) and ΔH were all allowed to float in the fitting procedure.
A titration curve such as that to an equation describing a simple-binding reaction (Wiseman, T. et al., Anal. Biochem. 179, 131-137, 1989). From this fit, values for the binding constant, stoichiometry and ΔH for the binding reaction are ascertained. […] Ferris, C. D. et al, Nature, 342, 87-89, 1989.

Where [7] appears, read: from concentrations required to reduce 3H-I(145)P3 binding by 50%, read-out: KD from competition assay.
[8] abbreviates: ratio of molar excess for 50% competition to that of unlabeled I(145)P3, multiplied by 0.2 μM, read-out: KD (μM) by competition assay.

For orientation: Kd means the free concentration of one partner at which half of the binding sites on the other are occupied at equilibrium, for simple one-to-one binding.

Several values for one entry are separate records, joined by “and”; a condition that tells them apart may be missing. Identical values can stand only once. Entries after “also recorded” stand apart in the source; their conditions may differ. Like-named read-outs stand apart in the source and are kept apart here.

Regarding `O=P(O)(O)O[C@@H]1[C@@H](O)[C@H](OP(=O)(O)O)[C@@H](OP(=O)(O)O)[C@H](O)[C@@H]1O` [L-I(145)P3], the Kd came out at 13 µM at PLCδ-PH [1] (setting [7]) and 8.1 µM on PLCδ-PH [1] (setting [8]).
For `O=P(O)(O)OC1C(O)C(O)C(OP(=O)(O)O)C(OP(=O)(O)O)C1O` (single isomer, unassigned) [D-I(245)P3] the same measures were 7.5 µM and 4.7 µM.
Regarding `O=P(O)(O)O[C@H]1[C@H](O)[C@@H](OP(=O)(O)O)[C@H](OP(=O)(O)O)[C@@H](OP(=O)(O)O)[C@H]1O` [D-I(1345)P4], on PLCδ-PH [1] (setting [8]), the dissociation constant Kd is more than 2 µM.
Still for that read-out and setting: for `O=S(=O)(O)OC1C(OS(=O)(=O)O)C(OS(=O)(=O)O)C(OS(=O)(=O)O)C(OS(=O)(=O)O)C1OS(=O)(=O)O` (centres unmarked) [I(SO4)6, inositol hexasulfate] the value was more than 60 µM.
As for `O=P(O)(O)O[C@@H]1C(O)[C@@H](OP(=O)(O)O)[C@@H](O)C(O)[C@H]1O` (stereo partly drawn) [D-I(24)P2], on PLCδ-PH [1] (setting [8]), the Kd is more than 12 µM.
Turning to `O=P(O)(O)O[C@H]1[C@H](OP(=O)(O)O)[C@@H](OP(=O)(O)O)[C@H](O)[C@@H](O)[C@H]1OP(=O)(O)O` [D-I(1256)P4], the equilibrium dissociation constant (Kd) on PLCδ-PH [1] (setting [8]) is 12 µM.
For `O=P(O)(OCC(O)CO)OC1C(O)C(O)C(O)C(O)C1O` (centres unmarked) [GPI, 1-(a-glycerophosphoryl)-inositol], at PLCδ-PH [1] (setting [8]), the Kd is more than 60 µM.
Turning to `O=P(O)(O)OC1[C@@H](O)[C@H](O)C(O)[C@H](O)[C@H]1O` (some centres unmarked) [I-2-P, inositol-2-phosphate], the dissociation constant (Kd) at PLCδ-PH [1] (setting [8]) is more than 60 µM.
For `O=P(O)(O)O[C@@H]1[C@@H](O)[C@H](O)[C@H](O)[C@H](O)[C@H]1OP(=O)(O)O` [D-I(45)P2], the Kd was more than 50 µM on PLCδ-PH [1] (setting [7]) and more than 12 µM on PLCδ-PH [1] (setting [8]).
Take `O=P(O)(O)O[C@H]1[C@H](O)[C@@H](O)[C@H](OP(=O)(O)O)[C@@H](O)[C@H]1O` [D-I(14)P2]: the Kd on PLCδ-PH [1] (setting [7]) was more than 50 µM; at PLCδ-PH [1] (setting [8]), more than 12 µM.
In the case of `O=P(O)(O)OC1C(O)C(O)C(OP(=O)(O)O)C(OP(=O)(O)O)C1O` (single isomer, unassigned) [D-I(134)P3], the Kd on PLCδ-PH [1] (setting [8]) is more than 12 µM. The “binding detected by gel filtration” value in assay [2] is “neither Dyn-PH nor PlecN-PH was seen to bind; also recorded: Neither PlecN-PH nor Dyn-PH showed evidence of binding”; in assay [3] it was “neither Dyn-PH nor PlecN-PH was seen to bind; also recorded: Neither PlecN-PH nor Dyn-PH showed evidence of binding”; on PLCδ-PH [4] it was “no binding”.
Regarding phosphatidylserine [PS], on PLCδ-PH [1], the “competition for I(145)P3 binding by lipid vesicles” value (from here on “competition for I(145)P3 binding”) is recorded as “no detectable competition; also recorded: did not compete”. Also, the binding to vesicles entry in assay [5] is on record as “no binding”.
As to `CCCCCCCCCCCCCC(=O)OC[C@H](COP(=O)([O-])OCC[N+](C)(C)C)OC(=O)CCCCCCCCCCCCC` [DMPC, dimyristoylphosphatidylcholine], the “competition for I(145)P3 binding” value on PLCδ-PH [1] is reported as “did not compete”; at PLCδ-PH [1] (listed as PC) it was “no detectable competition”.
phosphatidylinositol [PI]: the “competition for I(145)P3 binding” value on PLCδ-PH [1] is given as “no detectable competition; also recorded: did not compete”. Besides, the binding to vesicles entry in assay [5] is “no binding”.
In the case of `O=P(O)(O)O[C@@H]1[C@@H](O)[C@H](OP(=O)(O)O)[C@@H](OP(=O)(O)O)[C@@H](O)[C@H]1OP(=O)(O)O` [D-I(1346)P4], the Kd on PLCδ-PH [1] (setting [8]) turned out to be 5.3 µM.
For `O=P(O)(O)O[C@@H]1[C@@H](O)[C@@H](O)[C@@H](OP(=O)(O)OC[C@H](O)CO)[C@H](O)[C@H]1OP(=O)(O)O` [GPIP2, 1-(a-glycerophosphoryl)-D-inositol-4,5-bisphosphate], the Kd at PLCδ-PH [1] (PIP2: 5% in DMPC vesicles, assuming 50% available, read-out: KD from competition assay) is 0.4 µM; on PLCδ-PH [1] (setting [8]) it was 0.45 µM; in assay [6] (ITC, read-out: KD (dissociation constant)), 0.4 µM; in assay [6] (individual titrations, 25° C, pH 6.8, read-out: KD), 0.32 µM and 0.4 µM; in assay [6] (mean of the titrations, read-out: KD), 0.36 ± 0.06 µM. In addition, the “binding weaker than I(145)P3” value at PLCδ-PH [1] (relative to I(145)P3 binding to PLCδ-PH) is given as “two-fold”. In addition, the “binding affinity in words” value in assay [6] (PIP2 in vesicles) is listed as “submicromolar affinities”. The ΔG was -8.86 kcal/M and -8.72 kcal/M in assay [6] (individual titrations, 25° C); -8.79 ± 0.10 kcal/M in assay [6] (mean of the titrations). For the same compound, the ΔH in assay [6] (individual titrations, 25° C) is -13.5 ± 0.1 kcal/M and -13.2 ± 0.1 kcal/M; in assay [6] (mean of the titrations), -13.4 ± 0.2 kcal/M. For the same compound, the ΔS in assay [6] (individual titrations, 25° C) is −15.6 cal · M^−1 · K^−1 and −15.2 cal · M^−1 · K^−1; in assay [6] (mean of the titrations), −15.4 ± 0.3 cal · M^−1 · K^−1. For the same compound, the Stoichiometry n in assay [6] (individual titrations, 25° C, pH 6.8, quoted for IPn as the ligand, PIP2 in vesicles assuming 50% available) is 1.08 ± 0.01 and 1.14 ± 0.01; in assay [6] (mean of the titrations), 1.11 ± 0.04.
For `O=P(O)(O)O[C@H]1[C@H](OP(=O)(O)O)[C@@H](OP(=O)(O)O)[C@@H](O)[C@@H](O)[C@@H]1OP(=O)(O)O` [D-I(3456)P4], at PLCδ-PH [1] (setting [8]), the Kd is 3.2 µM.
